Source: publication PMC4929710, “Specificity and mechanism of action of alpha-helical membrane-active peptides interacting with model and biological membranes by single-molecule force spectroscopy” (Scientific Reports, 2016)
pIC50: −log10 of the molar value.

Tests used:
P. aeruginosa ATCC27853 = format: cell-based; conditions: ATCC27853, 24 h
Experimental: (§1) Then, 10 μL of peptides was added. […] All assays were repeated in triplicate.

E. coli ATCC25922 = format: cell-based; conditions: ATCC25922, 24 h
Experimental: as §1

S. epidermidis ATCC12228 = format: cell-based; conditions: ATCC12228, 24 h
Experimental: as §1

[1] = system: gram-negative bacteria (P. aeruginosa and E. coli); format: cell-based
Experimental: as §1

S. aureus ATCC25923 = format: cell-based; conditions: ATCC25923, 24 h
Experimental: as §1

3T3-L1 cells = format: cell-based, mouse; conditions: 24 h
Experimental: (§2) The MTT cell proliferation assay was used to investigate the anticancer activity and cytotoxicity of MAPs against cancer cell lines (HeLa, A549, SGC-7901, and B16) and normal cells (3T3-L1), respectively. Cells (5 × 10^3) were seeded in 96-well plates and incubated overnight. The peptide samples were then added to cells with final concentrations ranging from 1 μM to 125 μM. After 24 h, 20 μL of 5 mg/mL MTT solution in PBS was added to the cells and treated for 4 h at 37 °C. The formazan crystals were dissolved by 150 μL of dimethyl sulfoxide (DMSO). Finally, the absorbance was determined at 492 nm. The results were expressed as IC50, representing the concentration at which cell viability was reduced by 50%. All assays were repeated in triplicate.

B16 cells = format: cell-based, mouse; conditions: 24 h
Experimental: as §2

SGC7901 cells = format: cell-based, human; conditions: 24 h
Experimental: as §2

A549 cells = format: cell-based, human; conditions: 24 h
Experimental: as §2

HeLa cells = format: cell-based, human; conditions: 24 h
Experimental: as §2

[2] = RP-HPLC retention time (peptide hydrophobicity); format: physicochemical; conditions: used as measure of peptide hydrophobicity
Experimental: All peptides were synthesized by solid-phase peptide synthesis using Fmoc (9-fluorenyl-methoxycar-bonyl) chemistry and rink amide 4-methylbenzhydrylamine resin (MBHA resin; 0.8 mmol/g), as described previously. The crude peptides were purified on a LC-6A preparative reversed-phase high performance liquid chromatography (RP-HPLC, Shimadzu, Kyoto, Japan) using a Zorbax 300 SB-C8 column (250 × 9.4 mm inner diameter, […] particle size, 300 Å pore size), as described previously. The purity of the peptides was characterized by analytical RP-HPLC, mass spectrometry, and amino acid analysis.

PC/PG (7:3 w/w) LUVs = assay: Tryptophan fluorescence with LUVs; format: binding; conditions: PC/PG (7:3 w/w) LUVs versus HEPES buffer, 25 °C
Excerpt: (§3) In order to investigate the interaction between peptides and difference types of cell membranes, three different LUVs were used to mimic a prokaryotic cell membrane (PC/PG), a normal eukaryotic cell membrane (PC/Chol), and a cancer cell membrane (PC/SM/PE/PS/Chol). Tryptophan residue in the peptide sequence was used as a fluorescent probe to examine the interaction of peptides with model membranes. […] For example, in the PC/PG (7:3 w/w) anionic prokaryotic mimicking model membrane, peptides V13L and A12L/A20L had the strongest hydrophobicity with blue shift values of approximately 37 nm and 38 nm, respectively. Conversely, peptide V13E with a negative charge of glutamic acid residue, and peptide L6A/L17A with the lowest hydrophobicity had blue shift values of approximately 18 nm and 17 nm, respectively. […] In addition, within PC/SM/PE/PS/Chol (4.35:4.35:1:0.3:1 w/w) as a cancer-mimicking model membrane, the same results could be obtained in that peptide hydrophobicity correlates with anticancer activity and the blue shift values of peptides.
(§4) In accordance with previously described methods, LUVs were prepared with PC/PG (7:3 w/w), PC/Chol (8:1 w/w), and PC/SM/PE/PS/Chol (4.35:4.35:1:0.3:1 w/w) to mimic prokaryotic cell, […], membranes, respectively. Lipids using the freeze-thaw method as described previously, followed by extrusion through […] double-stacked nuclepore filters using an Mini-Extruder (Avanti Polar Lipids, Inc.)[11][27].
(§5) Three kinds of LUVs were prepared and cultured in HEPES buffer (pH 7.4, 10 mM HEPES, 150 mM NaCl) and the molar concentration was adjusted to 100 μM. A total of 14 μL of 100 μM MAPs was mixed with 686 μL of 100 μM liposomes at 25 °C for 10 min. A Shimadzu RF-5301PC, (excitation wavelength of […], emission wavelength of 300–450 nm) was used to measure the tryptophan fluorescence. Potassium iodide (KI) as a quencher was added to the previous reaction system for a final concentration of 0.02–0.08 M, respectively. The experimental data were plotted according to the Stern–Volmer equation F0/F = 1 + Ksv[Q], where F0 and F are the fluorescence intensity in the absence or presence of a quencher at concentration [Q], respectively, and Ksv is the Stern–Volmer quenching constant.

PC/Chol (8:1 w/w) LUVs = assay: Tryptophan fluorescence with LUVs; format: binding; conditions: PC/Chol (8:1 w/w) LUVs versus HEPES buffer, 25 °C
Excerpt: as §3, §4, §5

[3] = system: PC/SM/PE/PS/Chol (4.35:4.35:1:0.3:1 w/w) LUVs; assay: Tryptophan fluorescence with LUVs; format: binding; conditions: PC/SM/PE/PS/Chol (4.35:4.35:1:0.3:1 w/w) LUVs versus HEPES buffer, 25 °C
Excerpt: as §3, §4, §5

[4] = Circular dichroism (CD) analysis; format: physicochemical; conditions: for α-Helix (%) 50% TFE / α-Helix (%) Benign: relative to molar ellipticity of A12L/A20L in 50% TFE; for [θ]222 Benign / [θ]222 50% TFE: CD, 25 °C; for [θ]222 Benign: benign buffer pH 7.0, 100 mM KCl, 50 mM KH2PO4/K2HPO4; for [θ]222 50% TFE: benign buffer:TFE 1:1 vol/vol; for α-Helix (%) Benign: benign buffer
Experimental: The secondary structures of the peptides were determined using a Jasco J-810 CD spectrometer (Jasco, Easton, MD) at 25 °C [12]. The benign buffer (pH 7.0, 100 mM KCl, 50 mM KH2PO4/K2HPO4) was used to simulate the hydrophilic environment and 50% 2,2,2-trifluoroethanol (TFE) (benign buffer: TFE = 1: 1, vol/vol) was used to simulate the hydrophobic environment. The mean residue molar ellipticities at 222 nm, [θ]222 (degree·cm^2·dmol^−1), were used to calculate the relative helical contents of MAPs[24].
CD spectroscopy illustrated the secondary structure of peptide analogs under benign environment and 50% TFE to mimic the hydrophobic conditions of cell membranes. CD results are shown in Supplementary Table S2 and Fig. S1. […] The helical content (%) of peptides in two groups relative to the molar ellipticity value of the peptide A12L/A20L in 50% TFE. In addition, except the peptide of V13E, the relative helicity of the peptides are in the same order of V13L>V13A>V13S>V13K and A12L/A20L>A20L>L6A>L6A/L17A in the benign and hydrophobic environments and also in the same order with the peptide hydrophobicity.

[5] = system: gram-positive bacteria (S. aureus and S. epidermidis); format: cell-based
Experimental: as §1

| Substance | G− MIC P. aeruginosa ATCC27853 (P. aeruginosa ATCC27853) [µM] | G− MIC E. coli ATCC25922 (E. coli ATCC25922) [µM] | G+ MIC S. epidermidis ATCC12228 (S. epidermidis ATCC12228) [µM] | G− MIC GM [1] [µM] | G+ MIC S. aureus ATCC25923 (S. aureus ATCC25923) [µM] | pIC50 (3T3-L1 cells) | pIC50 (B16 cells) | pIC50 (SGC7901 cells) | pIC50 (A549 cells) | pIC50 (HeLa cells) | tR (RP-HPLC retention time) [2] [min] | PC/PG Blue shift (PC/PG (7:3 w/w) LUVs) [nm] | PC/Chol Blue shift (PC/Chol (8:1 w/w) LUVs) [nm] | PC/SM/PE/PS/Chol Blueshift [3] [nm] | α-Helix (%) 50% TFE [4] [%] | [θ]222 Benign [4] [degree·cm^2·dmol^−1] | [θ]222 50% TFE [4] [degree·cm^2·dmol^−1] | α-Helix (%) Benign [4] [%] | G+ MIC GM [5] [µM] |
| --- | --- | --- | --- | --- | --- | --- | --- | --- | --- | --- | --- | --- | --- | --- | --- | --- | --- | --- | --- |
| Ac-KWKSFAKTFKSAKKTVLHTALKAISS-NH2 [Peptide L6A] | 125 | 64 | 64 | 89.44 | >125 | 4.06 | 4.13 | 4.10 | 4.03 | 4.02 | 36.053 | 19 | 1 | 23 | 70.67 | −3836.18 | −30626.20 | 8.85 | – |
| Ac-KWKSFLKTFKSASKTVLHTALKAISS-NH2 [Peptide V13S] | 8 | 8 | 4 | 8 | 8 | 4.77 | 5.25 | 5.37 | 4.92 | 4.91 | 43.038 | 27 | 3 | – | 71.30 | −4400.44 | −30899.20 | 10.15 | 5.66 |
| Ac-KWKSFLKTFKSAAKTVLHTALKAISS-NH2 [Peptide V13A] | 8 | 4 | 2 | 5.66 | 8 | 5.17 | 5.44 | 5.63 | 5.17 | 5.26 | 47.337 | 34 | 4 | – | 79.68 | −6524.79 | −34527.20 | 15.06 | 4 |
